From US20210161131A1, “cis-p-Menthane-1,8-Di-secondary Amine Compounds as well as Their Preparation Methods and Application in Weed Control” (RESEARCH INSTITUTE OF FORESTRY NEW TECHNOLOGY, CHINESE …, priority 2019, published 2021)

System: barnyard grass seeds
Assay: Petri dish seed germination method: inhibition of root and stem growth of barnyard grass
Type: in vivo
Details: 96 hours incubation
Description: (§1) Step 2: Accurately weigh 1 mmol cis-p-menthane-1,8-di-Schiff base compounds and cis-p-menthane-1,8-di-secondary amine compounds respectively, dissolve each of them with 0.25 mL DMF, and add a drop of Tween 80 in each resulted solution. After being fully dissolved, each solution is transferred to a 100 mL volumetric flask respectively and then diluted to the mark with distilled water to obtain a solution with a concentration of 10 mmol/L as the mother liquor. The two-fold dilution method is used to prepare diluted solutions with a series of concentrations (the concentrations of DMF and Tween 80 in the diluted solutions are the same as those in the mother liquor).
(§2) Barnyard grass seeds are placed in a 28° C. incubator and are soaked in an appropriate amount of distilled water for 12 hours there. After the clean water is filtered out, the seeds are then placed in the 28° C. incubator for 24 hours to germinate. Spread 2 pieces of filter paper in each of several Petri dishes, and place 10 barnyard grass seeds with the same size in each dish. Repeat each treatment for three times The dishes are divided into two groups: test dishes and control dishes. Add into each test dish 10 mL of the sample solution with the corresponding concentration of the target compound, and add into each control dish the same amount of the mixture of water, DMF and Tween 80 as the blank control. Add 10 seeds to each of the dishes (both test dishes and control dishes), place them in an artificial climate incubator, and incubate them for 96 hours under a temperature of 28° C., an illumination of 5000 1×, a photoperiod of day:night=16:8 and a relative humidity of 70-80%. The experimental data is processed and analyzed with DPS software to calculate the inhibition rate (y) of cis-p-menthane-1,8-di-secondary amine compounds on the root growth or stem growth of barnyard grass seeds.
Wherein, y is the inhibition rate of root growth or stem growth (%), x0 is the root length or stem length of the control, and x1 is the root length or stem length of the sample.
as §1, with “Accurately” for “Step 2: Accurately”, “cis-p-menthane-1,8-bis-(4-chlorophenyl)Schiff” for “cis-p-menthane-1,8-di-Schiff”, “base” for “base compounds”, “cis-p-menthane-1,8-bis-(4-chlorobenzyl)amine” for “cis-p-menthane-1,8-di-secondary amine compounds”, “(5 mmol/L, 2.5 mmol/L, 1.25 mmol/L, 0.625 mmol/L, 0.3125 mmol/L and 0.1563 mmol/L; the” for “(the”
as §2, with “placed in a 30° C. incubator” for “placed in the 28° C. incubator”, “in each Petri dish,” for “in each of several Petri dishes,”, “each Petri dish, and place” for “several Petri dishes, and place”, “with the above corresponding concentration” for “with the corresponding concentration”, “with DPS software.” for “with DPS software to calculate the inhibition rate (y) of cis-p-menthane-1,8-di-secondary amine compounds on the root growth or stem growth of barnyard grass seeds.”

Row | Compound | inhibition rate on the root growth of barnyard grass seeds (0.15625 mmol/L) | inhibition rate on the stem growth of barnyard grass seeds (0.15625 mmol/L) | inhibition rate on the root growth of barnyard grass seeds (0.3125 mmol/L) | inhibition rate on the stem growth of barnyard grass seeds (0.3125 mmol/L) | inhibition rate on the root growth of barnyard grass seeds (0.625 mmol/L) | inhibition rate on the stem growth of barnyard grass seeds (0.625 mmol/L) | inhibition rate on the root growth of barnyard grass seeds (1.25 mmol/L) | inhibition rate on the stem growth of barnyard grass seeds (1.25 mmol/L) | inhibition rate on the root growth of barnyard grass seeds (2.5 mmol/L) | inhibition rate on the stem growth of barnyard grass seeds (2.5 mmol/L) | inhibition rate on the root growth of barnyard grass seeds (5 mmol/L) | inhibition rate on the stem growth of barnyard grass seeds (5 mmol/L)
1 | CC1(NCc2ccco2)CCC(C(C)(C)NCc2ccco2)CC1 (stereo not drawn) [cis-p-menthane-1,8-bis(furan-2-methyl)amine] | 0% | 0% | 36.3% | 8.6% | 39.0% | 16.1% | 48.8% | 19.3% | 72.7% | 41.1% | 92.7% | 65.3%
2 | CC(C)(NCc1ccccn1)[C@H]1CC[C@@](C)(NCc2ccccn2)CC1 [cis-p-menthane-1,8-bis(pyridine-2-methyl)amine] | 18.9% | 23.8% | 20.5% | 26.4% | 33.8% | 30.1% | 61.0% | 46.6% | 95.8% | 65.3% | 100.0% | 88.0%
3 | CC1(NCc2cccnc2)CCC(C(C)(C)NCc2cccnc2)CC1 (stereo not drawn) [cis-p-menthane-1,8-bis(pyridine-3-methyl)amine] | 5.7% | 38.0% | 10.2% | 30.6% | 19.2% | 41.5% | 41.4% | 44.6% | 86.1% | 65.3% | 95.2% | 84.9%
4 | CC1(NCc2ccncc2)CCC(C(C)(C)NCc2ccncc2)CC1 (stereo not drawn) [cis-p-menthane-1,8-bis(pyridine-4-methyl)amine] | 19.0% | 28.6% | 37.9% | 34.5% | 40.6% | 32.7% | 71.5% | 53.5% | 91.2% | 71.3% | 96.5% | 86.7%
5 | CC1(NCc2ccc[nH]2)CCC(C(C)(C)NCc2ccc[nH]2)CC1 (stereo not drawn) [cis-p-menthane-1,8-bis(pyrrole-2-methyl)amine] | 1.7% | 15.4% | 60.5% | 26.5% | 87.7% | 28.6% | 93.1% | 48.2% | 91.9% | 71.5% | 94.4% | 78.3%
6 | CC1(NCc2cccs2)CCC(C(C)(C)NCc2cccs2)CC1 (stereo not drawn) [cis-p-menthane-1,8-bis(thiophen-2-methyl)amine] | 0.8% | 13.3% | 1.5% | 28.9% | 5.8% | 39.2% | 50.0% | 45.3% | 75.1% | 51.0% | 86.0% | 59.1%
7 | CC1(N=Cc2ccccc2C(F)(F)F)CCC(C(C)(C)N=Cc2ccccc2C(F)(F)F)CC1 (stereo not drawn) [cis-p-menthane-1,8-bis-(2-trifluoromethylbenzyl)Schiff base, reference compound] | – | – | 20.9% | 9% | 15.4% | 13.2% | 2.7% | 17.7% | 20.6% | 12.1% | 34.8% | 21.2%
8 | CC(C)(NCc1ccccc1C(F)(F)F)[C@H]1CC[C@@](C)(NCc2ccccc2C(F)(F)F)CC1 [cis-p-menthane-1,8-bis-(2-trifluoromethylbenzyl)amine] | 51.9% | 36.9% | 57.0% | 43.6% | 68.0% | 49.0% | 93. % | 59.6% | 100% | 87.4% | 100% | 90.3%
